Data taken from EPA's CvTdb concentration-time database.

What was measured:
Rat [1] = assay: concentration in plasma after dosing; conditions: dosed: 2-Hydroxy-4-methoxybenzophenone, 8 mg/kg, iv, Male, F344
Rat [2] = assay: concentration in plasma after dosing; conditions: 4 h; dosed: 2-Hydroxy-4-methoxybenzophenone; 500 mg/kg; oral; Male; F344
Mouse [3] = assay: concentration in plasma after dosing; conditions: 10 min; dosed: 2-Hydroxy-4-methoxybenzophenone; 500 mg/kg; oral; Male; B6C3F1
Rat [4] = assay: concentration in plasma after dosing; conditions: dosed: 2-Hydroxy-4-methoxybenzophenone, 8 mg/kg, iv, Male, F344; remark: listed apart in the source
Mouse [5] = assay: concentration in plasma after dosing; conditions: 2 h; dosed: 2-Hydroxy-4-methoxybenzophenone; 500 mg/kg; oral; Male; B6C3F1
Rat [6] = assay: concentration in plasma after dosing; conditions: 2.5 min; dosed: 2-Hydroxy-4-methoxybenzophenone; 500 mg/kg; oral; Female; F344
Mouse [7] = assay: concentration in plasma after dosing; conditions: 0.25 h; dosed: 2-Hydroxy-4-methoxybenzophenone; 50 mg/kg; iv; Male; B6C3F1
Rat [8] = assay: concentration in plasma after dosing; conditions: dosed: 2-Hydroxy-4-methoxybenzophenone, 100 mg/kg, oral, Female, F344
Mouse [9] = assay: concentration in plasma after dosing; conditions: dosed: 2-Hydroxy-4-methoxybenzophenone, 100 mg/kg, oral, Male, B6C3F1
Mouse [10] = assay: concentration in plasma after dosing; conditions: 2 h; dosed: 2-Hydroxy-4-methoxybenzophenone; 500 mg/kg; oral; Male; B6C3F1; remark: listed apart in the source
Rat [11] = assay: concentration in plasma after dosing; conditions: dosed: Nitrite, 80 mg/kg, oral, Female, F344
Rat [12] = assay: concentration in plasma after dosing; conditions: 0.5 h; dosed: Nitrite; 80 mg/kg; oral; Female; F344
Rat [13] = assay: concentration in plasma after dosing; conditions: 10 min; dosed: Nitrite; 80 mg/kg; oral; Female; F344
Rat [14] = assay: concentration in plasma after dosing; conditions: 0.5 h; dosed: Nitrite; 40 mg/kg; oral; Male; F344
Rat [15] = assay: concentration in plasma after dosing; conditions: dosed: Nitrite, 20 mg/kg, iv, Male, F344
Rat [16] = assay: concentration in brain after dosing; conditions: 12 h; dosed: Perfluorooctanoic acid; 12 mg/kg; oral; Male; Harlan Sprague Dawley
Rat [17] = assay: concentration in liver after dosing; conditions: 48 h; dosed: Perfluorooctanoic acid; 80 mg/kg; oral; Female; Harlan Sprague Dawley
Rat [18] = assay: concentration in liver after dosing; conditions: 6 h; dosed: Perfluorooctanoic acid; 12 mg/kg; oral; Male; Harlan Sprague Dawley
Rat [19] = assay: concentration in liver after dosing; conditions: 24 h; dosed: Perfluorooctanoic acid; 12 mg/kg; oral; Male; Harlan Sprague Dawley
Rat [20] = assay: concentration in liver after dosing; conditions: 1200 h; dosed: Perfluorooctanoic acid; 12 mg/kg; oral; Male; Harlan Sprague Dawley
Rat [21] = assay: concentration in kidney after dosing; conditions: 3 h; dosed: Perfluorooctanoic acid; 80 mg/kg; oral; Female; Harlan Sprague Dawley
Rat [22] = assay: concentration in plasma after dosing; conditions: dosed: Fluorotelomer alcohol 8+2, 12 mg/kg, oral, Male, Harlan Sprague Dawley
Rat [23] = assay: concentration in plasma after dosing; conditions: dosed: Fluorotelomer alcohol 8+2, 12 mg/kg, oral, Male, Harlan Sprague Dawley; remark: listed apart in the source
Rat [24] = assay: concentration in kidney after dosing; conditions: 24 h; dosed: Perfluorooctanoic acid; 12 mg/kg; oral; Male; Harlan Sprague Dawley
Rat [25] = assay: concentration in plasma after dosing; conditions: 192 h; dosed: 678-39-7; 12 mg/kg; iv; Male; F344
Rat [26] = assay: concentration in plasma after dosing; conditions: 3 h; dosed: Fluorotelomer alcohol 8+2; 12 mg/kg; oral; Male; Harlan Sprague Dawley
Rat [27] = assay: concentration in kidney after dosing; conditions: 1 h; dosed: Fluorotelomer alcohol 8+2; 80 mg/kg; oral; Female; Harlan Sprague Dawley
Rat [28] = assay: concentration in plasma after dosing; conditions: 3 h; dosed: 678-39-7; 12 mg/kg; iv; Male; F344
Rat [29] = assay: concentration in liver after dosing; conditions: 3 h; dosed: Potassium Perfluorobutane Sulfonate; 20 mg/kg; oral; Male; Harlan Sprague Dawley
Rat [30] = assay: concentration in brain after dosing; conditions: 1 h; dosed: Potassium Perfluorobutane Sulfonate; 20 mg/kg; oral; Male; Harlan Sprague Dawley
Rat [31] = assay: concentration in liver after dosing; conditions: 0.5 h; dosed: Potassium Perfluorobutane Sulfonate; 20 mg/kg; oral; Female; Harlan Sprague Dawley
Rat [32] = assay: concentration in liver after dosing; conditions: 1 h; dosed: Potassium Perfluorobutane Sulfonate; 20 mg/kg; oral; Male; Harlan Sprague Dawley
Rat [33] = assay: concentration in brain after dosing; conditions: 1 h; dosed: Potassium Perfluorobutane Sulfonate; 20 mg/kg; oral; Male; Harlan Sprague Dawley; remark: listed apart in the source
Rat [34] = assay: concentration in kidney after dosing; conditions: 6 h; dosed: Potassium Perfluorobutane Sulfonate; 20 mg/kg; oral; Male; Harlan Sprague Dawley
Rat [35] = assay: concentration in plasma after dosing; conditions: 0.75 h; dosed: Potassium Perfluorobutane Sulfonate; 4 mg/kg; iv; Female; Harlan Sprague-Dawley
Rat [36] = assay: concentration in plasma after dosing; conditions: dosed: Potassium Perfluorobutane Sulfonate, 20 mg/kg, oral, Male, Harlan Sprague Dawley
Rat [37] = assay: concentration in plasma after dosing; conditions: 1.5 h; dosed: Potassium Perfluorobutane Sulfonate; 20 mg/kg; oral; Male; Harlan Sprague Dawley
Rat [38] = assay: concentration in kidney after dosing; conditions: 1 h; dosed: Potassium Perfluorobutane Sulfonate; 20 mg/kg; oral; Male; Harlan Sprague Dawley

COc1ccc(C(=O)c2ccccc2)c(O)c1 [2-Hydroxy-4-methoxybenzophenone]
Conditions	concentration in plasma [µg/mL]
Mouse [9], 0.25 h	0.0646
Mouse [9], 2 h	0.0211
Mouse [9], 2.5 min	0.0268
Mouse [9], 3 h	0.02
Mouse [9], 10 min	0.0396
Rat [1], 10 h	0.00658
Rat [1], 10 min	3.95
Rat [4], 0.25 h	2.37
Rat [4], 2 h	0.113
Rat [8], 3 h	0.00719
Rat [8], 10 min	0.0382

Conditions	concentration in plasma [µg/mL]
Mouse [3]	0.102
Mouse [5]	0.0901
Mouse [7]	7.11
Mouse [10]	0.0956
Rat [2]	0.345
Rat [6]	0.0128

O=N[O-] [Nitrite]
concentration in plasma [µg/mL]
Conditions	0.75 h	1 h	2 h	2 min
Rat [11]	–	8.1	6.8	–
Rat [15]	4	–	–	2

Conditions	concentration in plasma [µg/mL]
Rat [12]	30.2
Rat [13]	15.4
Rat [14]	1.9

O=C(O)C(F)(F)C(F)(F)C(F)(F)C(F)(F)C(F)(F)C(F)(F)C(F)(F)F [Perfluorooctanoic acid]
Conditions	concentration in brain [ng/g]	concentration in kidney [ng/g]	concentration in liver [ng/g]	concentration in plasma [µg/mL]
Rat [16]	1230	–	–	–
Rat [17]	–	–	616	–
Rat [18]	–	–	57200	–
Rat [19]	–	–	62500	–
Rat [20]	–	–	7530	–
Rat [21]	–	49700	–	–
Rat [24]	–	28700	–	–
Rat [25]	–	–	–	0.307
Rat [26]	–	–	–	0.392
Rat [27]	–	568	–	–
Rat [28]	–	–	–	0.497

concentration in plasma [µg/mL]
Conditions	0.5 h	9 h	48 h	192 h
Rat [22]	–	–	0.614	0.399
Rat [23]	0.0795	0.793	–	–

O=S(=O)([O-])C(F)(F)C(F)(F)C(F)(F)C(F)(F)F.[K+] [Potassium Perfluorobutane Sulfonate]
Conditions	concentration in brain [ng/g]	concentration in kidney [ng/g]	concentration in liver [ng/g]	concentration in plasma [µg/mL]
Rat [29]	–	–	80000	–
Rat [30]	1030	–	–	–
Rat [31]	–	–	51300	–
Rat [32]	–	–	100000	–
Rat [33]	1210	–	–	–
Rat [34]	–	11000	–	–
Rat [35]	–	–	–	2.53
Rat [37]	–	–	–	70
Rat [38]	–	28600	–	–

Rat [36]
Conditions	concentration in plasma [µg/mL]
0.25 h	30.2
24 h	1.07
